Assay results from paper PMC10987128, “A Natural Small Molecule Mitigates Kidney Fibrosis by Targeting Cdc42‐mediated GSK‐3β/β‐catenin Signaling” (Advanced Science, 2024).

Assays:
[1] = biological target: T1, Cdc42 (cell division cycle 42) (Homo sapiens, UniProt P60953); experiment: SPR (Biacore 8K, Cdc42 immobilized on CM5 chip); supported by CETSA and TPP in NRK-49F cells; type: binding
T1 construct: recombinant Cdc42 protein (230-00660-100, RayBio)

[2] = biological target: T1, Cdc42 (cell division cycle 42); experiment: SPR (Biacore 8K, Cdc42 immobilized on CM5 chip), positive control; type: binding
Text: SPR (Biacore 8K, Cdc42 immobilized on CM5 chip), positive control on Cdc42 (cell division cycle 42) | We used ZCL278, a well‐known Cdc42 binding compound, as a positive control in SPR experiments

T1 sequence (P60953 1-188): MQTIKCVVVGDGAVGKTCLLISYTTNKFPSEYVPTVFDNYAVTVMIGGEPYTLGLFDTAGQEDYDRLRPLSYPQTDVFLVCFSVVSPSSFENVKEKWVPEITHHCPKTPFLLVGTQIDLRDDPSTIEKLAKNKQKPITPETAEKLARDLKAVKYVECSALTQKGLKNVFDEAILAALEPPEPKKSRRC

Row | Compound | Kd [1] [µM] | Kd [2] [µM]
1 | C=C(C)[C@]12C[C@@H](C)[C@]34OC5(CCCCCCC[C@H](C)[C@@H]6[C@@H]3[C@@](O)(C(=O)[C@@]6(C)O)[C@H](O)[C@@]3(CO)O[C@H]3[C@H]4[C@H]1O5)O2 [compound 15, daphnepedunin A] | 15.6 | 
2 | Cc1cc(C)nc(NS(=O)(=O)c2ccc(NC(=S)NC(=O)COc3ccc(Br)cc3Cl)cc2)n1 [ZCL278] |  | 18.6
